This note sets out measurements from patent US20200069648A1, “HALOALLYLAMINE PYRAZOLE DERIVATIVE INHIBITORS OF LYSYL OXIDASES AND USES THEREOF” (Pharmaxis Ltd., priority 2017, published 2020).

As a reminder, the IC50 is the point on the concentration scale where inhibition reaches its midpoint.

One experiment has as its target T1, Recombinant human MAO-B (Homo sapiens, UniProt P27338).
T1 construct: purchased Sigma Aldrich
T1 sequence (P27338 1-520): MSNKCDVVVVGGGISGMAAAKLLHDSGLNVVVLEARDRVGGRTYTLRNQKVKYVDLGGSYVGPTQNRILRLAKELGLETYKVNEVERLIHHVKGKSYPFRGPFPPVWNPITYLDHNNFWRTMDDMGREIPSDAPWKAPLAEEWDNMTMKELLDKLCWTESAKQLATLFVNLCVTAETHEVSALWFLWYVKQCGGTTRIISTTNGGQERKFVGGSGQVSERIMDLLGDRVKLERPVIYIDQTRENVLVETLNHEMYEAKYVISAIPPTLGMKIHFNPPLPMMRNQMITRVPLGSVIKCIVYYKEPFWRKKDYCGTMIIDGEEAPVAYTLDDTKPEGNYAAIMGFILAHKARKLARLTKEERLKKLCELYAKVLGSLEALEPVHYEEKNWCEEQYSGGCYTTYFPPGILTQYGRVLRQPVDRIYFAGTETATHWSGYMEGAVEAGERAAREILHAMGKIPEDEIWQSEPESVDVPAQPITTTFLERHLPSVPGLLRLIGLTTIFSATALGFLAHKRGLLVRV
The experiment can be described thus: Human recombinant MAO-B inhibition. The experiment is classed as biochemical. The note with it: benzylamine 100 μM. How it is done: Method to Determine the Ability of Compounds of Formula I to Inhibit Human Recombinant MAO-B
The specificity of the compounds of this invention was tested by determining their ability to inhibit MAO-B activities in vitro. Recombinant human MAO-B (0.06 mg/mL; Sigma Aldrich) was used as source of MAO-B enzyme activities. The assay was performed in a similar way as for human SSAO/VAP-1 (Example 46) except, the substrate benzylamine was used at 100 μM.

In another experiment the target is T2, Human LOXL2 (Homo sapiens, UniProt Q9Y4K0).
T2 sequence (Q9Y4K0 26-774): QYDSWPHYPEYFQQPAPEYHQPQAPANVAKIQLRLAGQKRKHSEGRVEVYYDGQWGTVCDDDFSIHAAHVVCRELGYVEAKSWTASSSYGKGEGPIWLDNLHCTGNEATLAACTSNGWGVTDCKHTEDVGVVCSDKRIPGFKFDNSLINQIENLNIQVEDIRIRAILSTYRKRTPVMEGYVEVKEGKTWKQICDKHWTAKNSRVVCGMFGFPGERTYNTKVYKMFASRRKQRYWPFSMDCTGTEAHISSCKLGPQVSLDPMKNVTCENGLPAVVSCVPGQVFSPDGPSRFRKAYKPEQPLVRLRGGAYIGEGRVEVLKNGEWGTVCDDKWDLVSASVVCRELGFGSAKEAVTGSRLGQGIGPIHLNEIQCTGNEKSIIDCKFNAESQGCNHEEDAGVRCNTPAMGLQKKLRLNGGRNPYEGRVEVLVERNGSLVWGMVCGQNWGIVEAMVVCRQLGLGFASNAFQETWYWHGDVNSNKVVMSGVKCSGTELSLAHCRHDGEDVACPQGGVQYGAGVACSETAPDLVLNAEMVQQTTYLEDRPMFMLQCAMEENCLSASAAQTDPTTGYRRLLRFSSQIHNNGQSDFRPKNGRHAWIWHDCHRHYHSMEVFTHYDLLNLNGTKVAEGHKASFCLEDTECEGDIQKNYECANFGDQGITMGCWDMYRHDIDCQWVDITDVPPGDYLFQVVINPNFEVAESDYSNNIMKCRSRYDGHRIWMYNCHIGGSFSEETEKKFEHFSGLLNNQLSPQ
The experiment can be described thus: LOXL2 amine oxidase inhibition, peroxidase-coupled Amplex Red assay. The experiment is classed as biochemical. The following applies: 30 min preincubation at 37° C., putrescine substrate. In short, it runs like this:
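Enzyme preincubated 30 min at 37 °C with compound (11-point curve) in 1.2 M urea, 50 mM borate pH 8.2 plus 1 μM mofegiline and 0.5 mM pargyline; putrescine at twice KM (10 mM for LOXL2), Amplex Red and HRP added. Fluorescence (565/590 nm) read every 2.5 min for 30 min; IC50 from kinetic slopes.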

Where a name gives a salt, the structure may show the parent alone.

As for `Cc1nn(C/C(F)=C/CN)c(C)c1Cc1ccc(S(=O)(=O)N(C)C)c(Cl)c1` [Compound 15, (Z)-4-((1-(4-amino-2-fluorobut-2-en-1-yl)-3,5-dimethyl-1H-pyrazol-4-yl)methyl)-2-chloro-N,N-dimethylbenzenesulfonamide hydrochloride], the IC50 at Recombinant human MAO-B was > 30 µM; on Human LOXL2, < 1 µM.
The corresponding values for `Cc1nn(C/C(F)=C/CN)c(C)c1Cc1ccc(S(C)(=O)=O)c(Cl)c1` [Compound 16, (Z)-4-(4-(3-chloro-4-(methylsulfonyl)benzyl)-3,5-dimethyl-1H-pyrazol-1-yl)-3-fluorobut-2-en-1-amine hydrochloride] are > 30 µM and < 1 µM.
The corresponding values for `Cc1nn(C/C(F)=C/CN)c(C)c1Cc1ccc(S(=O)(=O)N(C)C)c(OC(F)(F)F)c1` [Compound 17, (Z)-4-((1-(4-amino-2-fluorobut-2-en-1-yl)-3,5-dimethyl-1H-pyrazol-4-yl)methyl)-N,N-dimethyl-2-(trifluoromethoxy)benzenesulfonamide hydrochloride] are > 30 µM and < 1 µM.
The corresponding values for `Cc1nn(C/C(F)=C/CN)c(C)c1Cc1ccc(S(=O)(=O)N(C)C)c(C(F)(F)F)c1` [Compound 18, (Z)-4-((1-(4-amino-2-fluorobut-2-en-1-yl)-3,5-dimethyl-1H-pyrazol-4-yl)methyl)-N,N-dimethyl-2-(trifluoromethyl)benzenesulfonamide hydrochloride] are > 30 µM and < 1 µM.
Consider `Cc1nn(C/C(F)=C/CN)c(C)c1Cc1cc(F)c(S(=O)(=O)N(C)C)cc1F` [Compound 19, (Z)-4-((1-(4-amino-2-fluorobut-2-en-1-yl)-3,5-dimethyl-1H-pyrazol-4-yl)methyl)-2,5-difluoro-N,N-dimethylbenzenesulfonamide hydrochloride], for which the IC50 is > 30 µM on Recombinant human MAO-B and < 1 µM against Human LOXL2.
The corresponding values for `CNS(=O)(=O)c1ccc(Cn2nc(C)c(C/C(F)=C/CN)c2C)c(Cl)c1` [Compound 20, (Z)-4-((4-(4-amino-2-fluorobut-2-en-1-yl)-3,5-dimethyl-1H-pyrazol-1-yl)methyl)-3-chloro-N-methylbenzenesulfonamide hydrochloride] are > 30 µM and < 1 µM.
As to `Cc1nn(Cc2ccc(S(C)(=O)=O)cc2Cl)c(C)c1C/C(F)=C/CN` [Compound 21, (Z)-4-(1-(2-chloro-4-(methylsulfonyl)benzyl)-3,5-dimethyl-1H-pyrazol-4-yl)-3-fluorobut-2-en-1-amine hydrochloride], the IC50 is > 30 µM on Recombinant human MAO-B and < 1 µM on Human LOXL2.
Turning to `CNS(=O)(=O)c1ccc(Cn2nc(C)c(C/C(F)=C/CN)c2C)cc1Cl` [Compound 22, (Z)-4-((4-(4-amino-2-fluorobut-2-en-1-yl)-3,5-dimethyl-1H-pyrazol-1-yl)methyl)-2-chloro-N-methylbenzenesulfonamide hydrochloride], the 50% inhibitory concentration (IC50) on Recombinant human MAO-B was > 30 µM; against Human LOXL2, < 1 µM.
Take `CNS(=O)(=O)c1ccc(Cn2nc(C)c(C/C(F)=C/CN)c2C)c(C(F)(F)F)c1` [Compound 23, (Z)-4-((4-(4-amino-2-fluorobut-2-en-1-yl)-3,5-dimethyl-1H-pyrazol-1-yl)methyl)-N-methyl-3-(trifluoromethyl)benzenesulfonamide hydrochloride]: the IC50 at Recombinant human MAO-B is > 30 µM; against Human LOXL2, < 1 µM.
The corresponding values for `Cc1nn(Cc2ccc(S(C)(=O)=O)c(Cl)c2)c(C)c1C/C(F)=C/CN` [Compound 24, (Z)-4-(1-(3-chloro-4-(methylsulfonyl)benzyl)-3,5-dimethyl-1H-pyrazol-4-yl)-3-fluorobut-2-en-1-amine hydrochloride] are > 30 µM and < 1 µM.
The corresponding values for `Cc1nn(Cc2cc(F)c(S(=O)(=O)N(C)C)cc2F)c(C)c1C/C(F)=C/CN` [Compound 25, (Z)-4-((4-(4-amino-2-fluorobut-2-en-1-yl)-3,5-dimethyl-1H-pyrazol-1-yl)methyl)-2,5-difluoro-N,N-dimethylbenzenesulfonamide hydrochloride] are > 30 µM and < 1 µM.
The corresponding values for `CNS(=O)(=O)c1cc(F)c(Cn2nc(C)c(C/C(F)=C/CN)c2C)cc1F` [Compound 26, (Z)-4-((4-(4-amino-2-fluorobut-2-en-1-yl)-3,5-dimethyl-1H-pyrazol-1-yl)methyl)-2,5-difluoro-N-methylbenzenesulfonamide hydrochloride] are > 30 µM and < 1 µM.
For `CCOC(=O)c1c(Cc2ccc(S(=O)(=O)N(C)C)cc2)c(C)nn1C/C(F)=C/CN` [Compound 27, (Z)-ethyl 1-(4-amino-2-fluorobut-2-enyl)-4-(4-(N,N-dimethylsulfamoyl)benzyl)-3-methyl-1H-pyrazole-5-carboxylate hydrochloride], the half-maximal inhibitory concentration (IC50) was > 30 µM on Recombinant human MAO-B and < 1 µM on Human LOXL2.
The corresponding values for `CCOC(=O)c1nn(C/C(F)=C/CN)c(C)c1Cc1ccc(S(=O)(=O)N(C)C)cc1` [Compound 28, (Z)-ethyl 1-(4-amino-2-fluorobut-2-enyl)-4-(4-(N,N-dimethylsulfamoyl)benzyl)-5-methyl-1H-pyrazole-3-carboxylate hydrochloride] are > 30 µM and < 1 µM.
The corresponding values for `Cc1nn(C/C(F)=C/CN)c(C(=O)N(C)C)c1Cc1ccc(S(=O)(=O)N(C)C)cc1` [Compound 29, (Z)-1-(4-amino-2-fluorobut-2-enyl)-4-(4-(N,N-dimethylsulfamoyl)benzyl)-N,N,3-trimethyl-1H-pyrazole-5-carboxamide hydrochloride] are > 30 µM and < 1 µM.
The corresponding values for `Cc1nn(C/C(F)=C/CN)c(C(=O)O)c1Cc1ccc(S(=O)(=O)N(C)C)cc1` [Compound 30, (Z)-1-(4-amino-2-fluorobut-2-enyl)-4-(4-(N,N-dimethylsulfamoyl)benzyl)-3-methyl-1H-pyrazole-5-carboxylic acid hydrochloride] are > 30 µM and < 1 µM.
As for `Cc1c(Cc2ccc(S(=O)(=O)N(C)C)cc2)c(C(=O)O)nn1C/C(F)=C/CN` [Compound 31, (Z)-1-(4-amino-2-fluorobut-2-enyl)-4-(4-(N,N-dimethylsulfamoyl)benzyl)-5-methyl-1H-pyrazole-3-carboxylic acid hydrochloride], the IC50 on Recombinant human MAO-B is > 30 µM; on Human LOXL2, < 1 µM.
As to `Cc1c(Cc2ccc(S(=O)(=O)N(C)C)cc2)c(C(=O)N(C)C)nn1C/C(F)=C/CN` [Compound 32, (Z)-1-(4-amino-2-fluorobut-2-enyl)-4-(4-(N,N-dimethylsulfamoyl)benzyl)-N,N,5-trimethyl-1H-pyrazole-3-carboxamide hydrochloride], the IC50 at Recombinant human MAO-B was > 30 µM; on Human LOXL2, < 1 µM.
